From US11980687B2, “Liposomal compounds and methods of use thereof” (University of Kentucky Research Foundation, priority 2019, dated 2024)

Columns and labels:
heart = experiment: Hemodynamic and ECG effects after retro-orbital administration; type: in vivo, mice; conditions: 40 mg/kg retro-orbital
Experimental: Mice were anaesthetized using 1%-3% isoflurane during Echocardiography to maintain heart rate of 450-500 BPM during imaging. A Vevo 3100 system coupled with a 15-7-MHz linear broadband transducer and a 12-5-MHz phased array transducer was used to perform Echocardiogram analyses. Heart function was examined at baseline (before cardiac surgery) then one-week and 4 weeks post-MI. During acquisition, a heating pad was used to preserve the body temperature at 37° C.; the temperature was continuously assessed by a rectal temperature probe. Using modified parasternal long-axis and short-axis, two-dimensional and Doppler echocardiography was used to assess the LV function and volume in M-mode. Tracings at the mid-papillary level to investigate the systolic and diastolic parameters and Teichholz formula were used to quantify LV function. Echocardiography imaging and analyses were carried out by a blinded investigator. Mice were anesthetized with 2% isoflurane, then placed on the ECG platform. Electrodes were inserted subcutaneously on the two front paws and the left rear paw followed by ECG recording for 2-3 minutes. Once the recording was completed, the data were analyzed using Chart software (PhysioTel).

macrophages [1] = experiment: Flow cytometry of macrophage phenotypes in the injured heart; type: in vivo, mice; conditions: heart post-MI, relative to Lazm
Experimental: Phenotypic cell analysis of macrophages and neutrophils and gene expression analysis was conducted in the heart as previously described ([…] et al. 2018). Briefly, mice were sacrificed, and hearts were rapidly isolated and placed in ice cold PBS (VWR International). Using a razor blade, the heart was minced manually. After mincing, tissue was incubated with a Collagenase B (Roche, Indianapolis, IN) and Dispase II (Roche, Indianapolis, IN) mixture at 37° C. for 30 minutes, with gentle agitation every 5-10 minutes. Tissue digestion ceased using cold staining buffer and the suspension was placed on ice and filtered using a 70 μm cell strainer, followed by centrifugation at 400×g for 5 mins at 4° C. Supernatant was discarded and the pellet was resuspended in 0.3 ml of staining buffer. Individual heart cells were divided into approximately three equal portions depending on cell counting with 10^6 live (trypan blue-negative) cells in each. Two portions were used for cell staining while the remainder was incubated with cell lysis buffer (Life technologies) using multiple aggressive agitations, for 10 minutes and reserved at -80° C. for further gene expression analysis. […] Cells were then washed twice with staining buffer and analyzed by an LSR II (Becton Dickinson) in the University of Kentucky Flow Cytometry Core. […]

macrophages [2] = experiment: Immunohistochemistry of macrophages in the peri-infarct zone; type: in vivo, mice
Experimental: Heart sections (N=4/treatment group) were prepared as described in the previous section. Immunostaining of heart sections was performed on deparaffinized and rehydrated sections as previously described (Al-Darraji, Haydar et al. 2018). Briefly, after deparaffinization and rehydration, sections were incubated with primary antibodies: rabbit anti-mouse IBA1 (Wako), goat anti-mouse CD206 (R and D Systems), and goat anti-mouse IL-1β (R & D Systems) overnight at 4° C., then washed and incubated with secondary antibodies conjugated to Alexa Fluor 488 or 594 (Invitrogen), followed by incubation with DAPI. In the peri-infarct area, 10-15 adjacent zones per section (1-2 sections/animal) were imaged at 40× magnification utilizing Nikon Confocal Microscope A1 in the University of Kentucky Confocal Microscopy facility. Nucleated cells that were antibody-positive were quantified using Cell Counter plugin for Nikon NIS-Elements (version AR 3.2). Findings are presented as total number of positive cells per high power field in the area of interest.

Ly6C^hi monocytes = experiment: Flow cytometry of Ly6C^hi monocytes in heart and blood post-MI; type: in vivo, mice; conditions: first day after injury; effect disappears at later timepoints
Experimental: (§1) Cell phenotype, in addition to gene analyses, of monocytes and neutrophils were investigated in peripheral blood as previously described ([…] et al. 2018). Briefly, blood was collected in tubes with a 1:5 ratio of ethylene diaminetetraacetic acid (EDTA)/citrate-theophylline-adenosinedipyridamole (CTAD) on days 1, 3 and 7 post-MI. Whole blood was centrifuged for 5 minutes at 500×g, and the plasma layer was separated and reserved at -80° C. To lyse red blood cells, the residual cell pellet was incubated with 0.5 ml of diluted red blood lysing buffer (BD pharm lyse) for 10 minutes with mild agitation. To end the lysis process, 0.5 ml of staining buffer (5% goat serum, 0.05% sodium azide in phosphate-buffered saline) was added to the suspension of red blood cell lysed blood. Then, the suspension was centrifuged at 400×g for 5 minutes, and the supernatant was removed. This step was repeated if the red blood cells were still detectable in the cell pellet. White blood cell pellet was washed twice in staining buffer to remove any residual lysis buffer. After supernatant removal, the pellet was resuspended in a pre-determined volume of staining buffer and counted. […] Following incubation, cells were washed twice with staining buffer and analyzed by an LSR II (Becton Dickinson) in the University of Kentucky Flow Cytometry Core. […]

neutrophils = experiment: Flow cytometry of neutrophils and N1 neutrophils in heart and blood post-MI; type: in vivo, mice; conditions: day 1 post-MI
Experimental: as §1

[3] = system: pro- and anti-inflammatory cytokine expression; experiment: RT-PCR of inflammatory and reparative gene expression in heart and blood cells post-MI; type: in vivo, mice
Experimental: PureLink RNA Mini Kit (ThermoFisher Scientific) was used to isolate total mRNA from heart and blood cells according to manufacturer protocol. Isolated RNA was quantified using NanoDrop 8000 spectrophotometer (Thermofisher). Next, cDNA was generated using SuperScript VILO cDNA synthesis kit (Invitrogen). Using a QuantaStudio 7 Flex real-time thermocycler (Applied Biosystems by life technology), Reverse Transcription-Polymerase Chain Reaction (RT-PCR) was performed to measure the mRNA expression of markers identifying: inducible nitric oxide synthase (iNOS), tumor necrosis factor alpha (TNF-α), monocyte chemotactic protein-1 (MCP-1), transforming growth factor beta (TGF-β), interleukin-1 beta (IL-1β), interleukin-6 (IL-6), interleukin-4 (IL-4), chitinase-like3 Chil3 (YM1), interleukin-10 (IL10), arginase-1 (ARG-1), and Peroxisome proliferator-activated receptor gamma (PPARg). We used the comparative Ct method for relative estimation of mRNA expression which was normalized to 18s (a housekeeping gene). […]

cardiac cells = experiment: TUNEL and caspase-3 staining of apoptosis in the peri-infarct region; type: in vivo, mice; conditions: peri-infarct regions, 3 days post-MI, compared to vehicle control
Experimental: Cell apoptosis was examined on deparaffinized and rehydrated sections from mice (N=4/treatment group) sacrificed at day 3, as previously described ([…] et al. 2018). TUNEL and caspase-3 staining was performed in the Biospecimen Procurement and Translational Pathology Shared Resource Facility (BPTP SRF) at the University of Kentucky. Nucleated cells that stained positive were estimated. Quantification was performed using Cell Counter plugin for ImageJ (version 1.51d). Findings are presented as total positive cells per high power field in the peri-infract region. All measurements were obtained in the peri-infarcted areas only and analyzed by blinded observer.

infarcted heart = experiment: Masson's trichrome scar size 30 days post-MI; type: in vivo, mice; conditions: compared to controls
Experimental: Histological analysis was performed on deparaffinized and rehydrated sections as previously described (Al-Darraji, Haydar et al. 2018). Briefly, 30 day post-MI mice (N=6-10/treatment group) were sacrificed under isoflurane anesthesia and hearts were isolated. Hearts were perfused with PBS (VWR International) then by 10% buffered formalin (VWR International) at 75 mmHg. Perfused hearts were placed in 10% neutral buffered formalin (VWR) overnight at room temperature, then sectioned into 2-mm cross-sections starting at the level of coronary ligation then imbedded in paraffin and sectioned into 4-μm sections. Sections were stained with Masson's trichrome to evaluate scar size as previously described (Al-Darraji, Haydar et al. 2018). Digital images of stained sections were acquired, and areas of interest were assessed using NIH ImageJ […] software. The LV area, LV cavity area, and infarct area were measured as previously described (Al-Darraji, Haydar et al. 2018). Scar size was presented as a percentage of the total LV […].

[4] = cited from earlier work
IL-1β = IL-1β (Homo sapiens, UniProt P01584); conditions: cited from earlier work

| Compound | QT interval (heart) | RR (heart; compared with baseline) | cardiac output (heart; compared with baseline) | ejection fraction (heart; compared with baseline) | heart rate (heart; compared with baseline) | immunomodulatory changes of heart macrophages (FACS) (macrophages [1]) | reparative macrophages (CD206+) in peri-infarct zone (macrophages [2]; day 3 post-MI, compared to control groups) | expression of IL-1β in macrophages (IBA1+IL-1β+) (macrophages [2]; peri-infarct zones, 3 days post-MI, compared to controls) | Ly6C^hi (pro-inflammatory) monocytes in the heart (Ly6C^hi monocytes) | neutrophil counts in the heart (neutrophils) | expression of anti-inflammatory cytokines and reparative macrophage markers (TGF-β, IL-10, IL-4, ARG, Fizz1, PPARγ, YM1) in cardiac tissue ([3]; consistent effects up to day 7) | mRNA levels of iNOS and pro-inflammatory cytokines (MCP-1, TNF-α, IL-6, IL-1β) in cardiac tissue ([3]; particularly days 1 and 3 post-infarct) | TUNEL positive cells (late apoptosis) (cardiac cells) | caspase-3 positive cells (early apoptosis) (cardiac cells) | scar size (percentage of LV area) (infarcted heart) | mortality during drug administration (40 mg/kg IV, post-MI) | survival (35 days post-MI, vs vehicle-treated mice) | post-MI cardiac recovery ([4]; 160 mg/kg/day, orally, initiated 3 days pre-MI) | neutrophil counts ([4]; first study, mice receiving AZM) | cardiovascular events reoccurrence (IL-1β) |
| --- | --- | --- | --- | --- | --- | --- | --- | --- | --- | --- | --- | --- | --- | --- | --- | --- | --- | --- | --- | --- |
| CC[C@H]1OC(=O)[C@H](C)[C@@H](O[C@H]2C[C@@](C)(OC)[C@@H](O)[C@H](C)O2)[C@H](C)[C@@H](O[C@@H]2O[C@H](C)C[C@H](N(C)C)[C@H]2O)[C@](C)(O)C[C@@H](C)CN(C)[C@H](C)[C@@H](O)[C@]1(C)O [free AZM, azithromycin] | prolonged | remarkably reduces | remarkably reduces | remarkably reduces | remarkably reduces | Less powerful immunomodulatory changes | significant increase | marked reduction | significantly decrease in the first day after injury | did not see significant changes | significantly upregulated | substantially downregulated | remarkable reduction | remarkable reduction | significant reduction | occurs during the drug administration due to severe changes in cardiac conduction and hemodynamic parameters | marked improvement in survival | enhances post-MI cardiac recovery | substantially decreased | – |
| canakinumab: monoclonal antibody targeting IL-1β | – | – | – | – | – | – | – | – | – | – | – | – | – | – | – | – | – | – | – | significantly decreases cardiovascular events reoccurrence |
